Test system: stable CF patients
Assay: Phase 2 study: pulmonary function (FEV1, FVC, FEF 25-75)
Assay type: in vivo, human
Parameters: FEF 25-75, Median / FEV1, Day 14, Mean / FEF 25-75, Mean: unit not given here; FEV1, Day 1, Mean / FEV1, Day 1, Median / FEV1, Day 14, Median / FEV1, Day 28, Mean / FEV1, Day 28, Median: unit: L
Conditions: for Increase in FEF 25-75 / Increase in FEV1: median Day 1 to Day 28; for FEV1, Day 1, Mean / FEV1, Day 1, Median / FEV1, Day 14, Mean / FEV1, Day 14, Median / FEV1, Day 28, Mean / FEV1, Day 28, Median / FEV1, Percent Change from Baseline to Day 14, Mean / FEV1, Percent Change from Baseline to Day 14, Median / FEV1, Percent Change from Baseline to Day 28, Mean / FEV1, Percent Change from Baseline to Day 28, Median / % predicted FEV1, Mean / % predicted FEV1, Median: MITT population
Experimental: The following dosage regimens (as nebulizer loaded doses) were evaluated: 120 mg QD (daily); 240 mg QD (daily); and 240 mg BID (twice daily).
Efficacy endpoints including clinical endpoints, pulmonary function tests, and additional microbiological parameters were assessed as change from Day 1 to subsequent visits where the endpoint data was collected. Time to need for intravenous/oral/inhaled anti-pseudomonal antimicrobials were assessed from Day 1 until final visit using survival analysis. The primary population for efficacy analysis was the EE population, but efficacy endpoints were also analyzed using the MITT population.
Changes in FEV1 (forced expiratory volume in 1 second), FVC (forced vital capacity) and FEF 25-75 (forced expiratory flow 25-75%) from Day 1 to all subsequent visits were determined for patients. Tables 26 and 27 summarize the results for FEV1 measurements in EE and MITT populations, respectively. FIGS. 7 and 8 show graphs of percent change in FEV1 (L) and percent change in FEV1(L) vs. placebo, respectively, at Day 28 for the EET population treated with placebo, 120 mg QD, 240 mg QD, or 240 mg BID. […] Tables 28 and 29 summarize the results for predicted FEVI measurements in EE and MITT populations, respectively. Tables 30 and 31 summarize results for FEF 25-75 measurements in EE and MITT populations, respectively.

[1] = EE, 240 mg BID, Day 1 (baseline)
[2] = Day 1 (baseline), combined 240 mg QD and BID
[3] = Day 14, combined 240 mg QD and BID
[4] = Day 28, combined 240 mg QD and BID
[5] = MITT, 240 mg BID, Day 1 (baseline)

C[C@H]1COc2c(N3CCN(C)CC3)c(F)cc3c(=O)c(C(=O)O)cn1c23 [Levofloxacin, levofloxacin]
FEF 25-75, Median (EE population, Day 28, combined 240 mg QD and BID): 0.97 | FEF 25-75, Median (EE, 120 mg QD, Day 1): 0.98 | FEV1, median (EE, 120 mg QD, Day 1): 1.87 L | FEF 25-75, Median (EE, 120 mg QD, Day 28): 1.03 | FEV1, median (EE, 120 mg QD, Day 28): 1.91 L | Increase in FEF 25-75 (EE, 120 mg QD): approximately 5% | Increase in FEV1 (EE, 120 mg QD): approximately 2% | FEF 25-75, Median [1]: 0.68 | FEV1, median [1]: 1.70 L | FEF 25-75, Median (EE, 240 mg BID, Day 28): 0.78 | FEV1, median (EE, 240 mg BID, Day 28): 1.79 L | Increase in FEF 25-75 (EE, 240 mg BID): approximately 15% | Increase in FEV1 (EE, 240 mg BID): approximately 5% | FEF 25-75, Median (EE, 240 mg QD, Day 1): 1.10 | FEV1, median (EE, 240 mg QD, Day 1): 2.02 L | FEF 25-75, Median (EE, 240 mg QD, Day 28): 1.15 | FEV1, median (EE, 240 mg QD, Day 28): 2.15 L | Increase in FEF 25-75 (EE, 240 mg QD): approximately 4% | Increase in FEV1 (EE, 240 mg QD): approximately 6% | Largest difference for FEF 25-75, placebo vs levofloxacin (EE, Day 14): 0.25 L | Largest difference for FEV1, placebo vs levofloxacin (EE, Day 14): 0.16 L | Largest difference for FEF 25-75, placebo vs levofloxacin (EE, Day 28): 0.21 L | Largest difference for FEV1, placebo vs levofloxacin (EE, Day 28): 0.24 L | FEV1, Day 1, Mean (120 mg QD): 1.95 | FEV1, Day 1, Median (120 mg QD): 1.83 | FEV1, Day 14, Mean (120 mg QD): 1.97 | FEV1, Day 14, Median (120 mg QD): 1.79 | FEV1, Day 28, Mean (120 mg QD): 1.99 | FEV1, Day 28, Median (120 mg QD): 1.83 | FEV1, Percent Change from Baseline to Day 14, Mean (120 mg QD): 1.87% | FEV1, Percent Change from Baseline to Day 14, Median (120 mg QD): 0.56% | FEV1, Percent Change from Baseline to Day 28, Mean (120 mg QD): 1.92% | FEV1, Percent Change from Baseline to Day 28, Median (120 mg QD): 1.60% | FEV1, Day 1, Mean (240 mg BID): 1.88 | FEV1, Day 1, Median (240 mg BID): 1.70 | FEV1, Day 14, Mean (240 mg BID): 2.04 | FEV1, Day 14, Median (240 mg BID): 1.90 | FEV1, Day 28, Mean (240 mg BID): 1.93 | FEV1, Day 28, Median (240 mg BID): 1.82 | FEV1, Percent Change from Baseline to Day 14, Mean (240 mg BID): 9.34% | FEV1, Percent Change from Baseline to Day 14, Median (240 mg BID): 7.51% | FEV1, Percent Change from Baseline to Day 28, Mean (240 mg BID): 5.93% | FEV1, Percent Change from Baseline to Day 28, Median (240 mg BID): 3.55% | FEV1, Day 1, Mean (240 mg QD): 2.05 | FEV1, Day 1, Median (240 mg QD): 1.90 | FEV1, Day 14, Mean (240 mg QD): 2.12 | FEV1, Day 14, Median (240 mg QD): 2.04 | FEV1, Day 28, Mean (240 mg QD): 2.09 | FEV1, Day 28, Median (240 mg QD): 2.10 | FEV1, Percent Change from Baseline to Day 14, Mean (240 mg QD): 3.81% | FEV1, Percent Change from Baseline to Day 14, Median (240 mg QD): 1.92% | FEV1, Percent Change from Baseline to Day 28, Mean (240 mg QD): 2.35% | FEV1, Percent Change from Baseline to Day 28, Median (240 mg QD): 1.28% | FEV1, Day 1, Mean (Combined 240 mg QD and BID): 1.96 | FEV1, Day 1, Median (Combined 240 mg QD and BID): 1.80 | FEV1, Day 14, Mean (Combined 240 mg QD and BID): 2.08 | FEV1, Day 14, Median (Combined 240 mg QD and BID): 1.97 | FEV1, Day 28, Mean (Combined 240 mg QD and BID): 2.01 | FEV1, Day 28, Median (Combined 240 mg QD and BID): 1.95 | FEV1, Percent Change from Baseline to Day 14, Mean (Combined 240 mg QD and BID): 6.61% | FEV1, Percent Change from Baseline to Day 14, Median (Combined 240 mg QD and BID): 3.94% | FEV1, Percent Change from Baseline to Day 28, Mean (Combined 240 mg QD and BID): 4.14% | FEV1, Percent Change from Baseline to Day 28, Median (Combined 240 mg QD and BID): 2.50% | % predicted FEV1, Mean (Day 1 (baseline), 120 mg QD): 52.9% | % predicted FEV1, Median (Day 1 (baseline), 120 mg QD): 53.0% | % predicted FEV1, Mean (Day 1 (baseline), 240 mg BID): 48.8% | % predicted FEV1, Median (Day 1 (baseline), 240 mg BID): 46.0% | % predicted FEV1, Mean (Day 1 (baseline), 240 mg QD): 55.4% | % predicted FEV1, Median (Day 1 (baseline), 240 mg QD): 56.0% | % predicted FEV1, Mean [2]: 52.0% | % predicted FEV1, Median [2]: 51.0% | % predicted FEV1, Mean (Day 14, 120 mg QD): 53.9% | % predicted FEV1, Median (Day 14, 120 mg QD): 53.0% | % predicted FEV1, Mean (Day 14, 240 mg BID): 52.1% | % predicted FEV1, Median (Day 14, 240 mg BID): 49.56% | % predicted FEV1, Mean (Day 14, 240 mg QD): 57.1% | % predicted FEV1, Median (Day 14, 240 mg QD): 61.0% | % predicted FEV1, Mean [3]: 54.6% | % predicted FEV1, Median [3]: 52.0% | % predicted FEV1, Mean (Day 28, 120 mg QD): 54.1% | % predicted FEV1, Median (Day 28, 120 mg QD): 50.0% | % predicted FEV1, Mean (Day 28, 240 mg BID): 50.8% | % predicted FEV1, Median (Day 28, 240 mg BID): 49.0% | % predicted FEV1, Mean (Day 28, 240 mg QD): 56.7% | % predicted FEV1, Median (Day 28, 240 mg QD): 54.0% | % predicted FEV1, Mean [4]: 53.8% | % predicted FEV1, Median [4]: 53.5% | FEF 25-75, Median [5]: 0.68 | FEV1, median [5]: 1.70 L | FEF 25-75, Median (MITT, 240 mg BID, Day 28): 0.82 | FEV1, median (MITT, 240 mg BID, Day 28): 1.82 L | Increase in FEF 25-75 (MITT, 240 mg BID): approximately 20% | Increase in FEV1 (MITT, 240 mg BID): approximately 7% | FEF 25-75, Median (MITT, 240 mg QD, Day 1): 1.09 | FEV1, median (MITT, 240 mg QD, Day 1): 1.90 L | FEF 25-75, Median (MITT, 240 mg QD, Day 28): 1.12 | FEV1, median (MITT, 240 mg QD, Day 28): 2.10 L | Increase in FEF 25-75 (MITT, 240 mg QD): approximately 3% | Increase in FEV1 (MITT, 240 mg QD): approximately 10% | Largest difference for FEF 25-75, placebo vs levofloxacin (MITT, Day 14): 0.27 L | Largest difference for FEV1, placebo vs levofloxacin (MITT, Day 14): 0.12 L | Largest difference for FEF 25-75, placebo vs levofloxacin (MITT, Day 28): 0.21 L | Largest difference for FEV1, placebo vs levofloxacin (MITT, Day 28): 0.25 L

Reference: patent US10792289B2 (Horizon Orphan LLC, priority 2009, dated 2020)
